Test results: ChEMBL document CHEMBL4411276, “Chemistry-oriented synthesis (ChOS) and target deconvolution on neuroprotective effect of a novel scaffold, oxaza spiroquinone” (Eur J Med Chem, 2019)

Assays:
[1] = system: BV-2; assay: Anti-inflammatory activity in mouse BV2 cells assessed as reduction in LPS-induced NO production pre-treated before LPS stimulation for 24 hrs by Griess reagent-based assay; type: functional, cell-based
[2] = system: Mus musculus; assay: Cognition enhancing effect in ICR mouse model of scopolamine-induced memory impairment assessed as spontaneous alteration at 10 mg/kg by Y-maze test (reference value: 45.14%); type: functional
[3] = target: T1, Serine/threonine-protein kinase haspin (Homo sapiens) (UniProt Q8TF76); assay: Inhibition of human haspin assessed as enzyme activity at 30 uM using Histone H3 as substrate by [gamma-33P]-ATP assay relative to control; set-up: scale not given: the % may be the effect or the level left
T1 sequence (whole entry): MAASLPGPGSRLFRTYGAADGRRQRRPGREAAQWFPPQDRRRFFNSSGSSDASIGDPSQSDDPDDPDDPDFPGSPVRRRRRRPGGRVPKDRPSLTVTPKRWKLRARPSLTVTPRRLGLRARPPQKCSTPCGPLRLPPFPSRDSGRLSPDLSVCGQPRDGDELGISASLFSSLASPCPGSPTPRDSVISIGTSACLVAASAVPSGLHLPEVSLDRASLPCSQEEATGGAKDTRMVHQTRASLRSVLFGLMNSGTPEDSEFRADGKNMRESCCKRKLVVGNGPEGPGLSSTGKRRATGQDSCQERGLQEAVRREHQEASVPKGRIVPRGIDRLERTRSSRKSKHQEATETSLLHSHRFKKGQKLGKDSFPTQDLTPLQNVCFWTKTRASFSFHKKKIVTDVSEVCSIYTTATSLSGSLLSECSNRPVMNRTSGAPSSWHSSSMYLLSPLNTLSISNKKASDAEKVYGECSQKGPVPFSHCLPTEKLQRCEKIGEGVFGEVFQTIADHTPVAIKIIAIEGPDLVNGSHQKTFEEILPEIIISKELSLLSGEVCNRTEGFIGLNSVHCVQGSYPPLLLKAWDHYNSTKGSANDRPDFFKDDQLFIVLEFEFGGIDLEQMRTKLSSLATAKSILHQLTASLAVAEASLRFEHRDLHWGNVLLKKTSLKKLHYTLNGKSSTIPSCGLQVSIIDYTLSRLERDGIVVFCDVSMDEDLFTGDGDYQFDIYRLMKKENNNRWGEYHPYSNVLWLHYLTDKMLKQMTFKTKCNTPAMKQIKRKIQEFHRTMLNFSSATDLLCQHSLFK

[4] = target: T2, Dual serine/threonine and tyrosine protein kinase (Homo sapiens) (UniProt Q6XUX3); assay: Inhibition of human RIPK5 assessed as enzyme activity at 30 uM using MBP as substrate by [gamma-33P]-ATP assay relative to control; set-up: scale not given: the % may be the effect or the level left
T2 sequence (whole entry): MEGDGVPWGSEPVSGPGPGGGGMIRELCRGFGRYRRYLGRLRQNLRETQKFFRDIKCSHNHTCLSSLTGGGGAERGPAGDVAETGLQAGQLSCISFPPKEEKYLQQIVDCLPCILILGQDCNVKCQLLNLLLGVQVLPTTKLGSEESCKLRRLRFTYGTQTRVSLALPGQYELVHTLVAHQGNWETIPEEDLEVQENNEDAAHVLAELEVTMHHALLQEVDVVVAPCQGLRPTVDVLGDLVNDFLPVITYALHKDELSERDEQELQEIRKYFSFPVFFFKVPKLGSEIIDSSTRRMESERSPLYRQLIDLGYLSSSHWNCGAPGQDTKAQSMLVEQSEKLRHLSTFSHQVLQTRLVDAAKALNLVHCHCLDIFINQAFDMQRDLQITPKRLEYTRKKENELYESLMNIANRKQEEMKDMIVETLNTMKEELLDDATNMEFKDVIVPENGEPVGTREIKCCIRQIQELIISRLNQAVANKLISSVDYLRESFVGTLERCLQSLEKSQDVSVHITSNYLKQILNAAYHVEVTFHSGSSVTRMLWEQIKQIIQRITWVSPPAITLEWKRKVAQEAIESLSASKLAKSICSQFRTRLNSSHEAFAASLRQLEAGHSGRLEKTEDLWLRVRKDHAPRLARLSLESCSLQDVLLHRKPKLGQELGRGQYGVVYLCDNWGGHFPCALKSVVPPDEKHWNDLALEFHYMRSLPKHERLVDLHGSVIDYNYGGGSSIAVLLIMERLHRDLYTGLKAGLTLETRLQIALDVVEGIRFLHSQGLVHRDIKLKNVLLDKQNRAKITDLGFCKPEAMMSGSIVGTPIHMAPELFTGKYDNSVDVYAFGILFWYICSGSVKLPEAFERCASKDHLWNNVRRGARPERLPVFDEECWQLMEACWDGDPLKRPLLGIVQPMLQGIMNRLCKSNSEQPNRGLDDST

## O=C1C=CC2(C=C1)OCC(Cc1cc(C(F)(F)F)cc(C(F)(F)F)c1)C(=O)N2c1ccccc1 (centres undefined)
[1]
  IC50: 70 nM
[2]
  Activity: 59.62%
[3]
  Activity: 66.1 to 66.8%
[4]
  Activity: 58.6 to 59.9%
